Measurements published in patent US20260125359A1, “HETEROARYL COMPOUNDS AS MULTI-TARGET PROTEIN KINASE INHIBITORS” (FUJIAN HAIXI PHARMACEUTICALS CO., LTD., priority 2023, published 2026).

What follows are compounds tested on M-NFS-60 cells (assay: M-NFS-60 cell in vitro assay (CCK, 48 h, M-CSF factor medium)). Conditions: M-NFS-60 cells; read-out: M-NFS-60cellassay IC50.
Format: cell-based
Procedure, shortened: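 Mouse M-NFS-60 cells (2000/well) in RPMI-1640 with 10% serum and M-CSF (25 ng/ml) were pre-incubated 4 h, then exposed to DMSO-diluted compound gradients for 48 h at 5% CO2. Viability read by CCK, 2 h, OD 450 nm; IC50 from curve fitting.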
With `Cn1cc(-c2cncc(N[C@H]3CCc4c(C(=O)Nc5cccc(C6CC6)c5)ccc(F)c43)c2)cn1` [Compound 50, (S)—N-(3-cyclopropylphenyl)-7-fluoro-1-((5-(1-methyl-1H-pyrazol-4-yl)pyridin-3-yl)amino)-2,3-dihydro-1H-indene-4-carboxamide] the IC50 was < 50 nM. With `Cn1cc(-c2cncc(N[C@H]3CCc4c3ccc(F)c4C(=O)Nc3cccc(C4CC4)c3)c2)cn1` [Compound 51a] the IC50 was < 50 nM. In the case of `Cn1cc(-c2cncc(N[C@H]3CCc4c(C(=O)Nc5cccc(C6CC6)c5)cc(F)cc43)c2)cn1` [Compound 51b], the IC50 is reported as < 50 nM. With `CN(c1cncc(-c2cnn(C)c2)c1)[C@H]1CCc2c(C(=O)Nc3cccc(C4CC4)c3)cc(F)cc21` [Compound 52, (S)—N-(3-cyclopropylphenyl)-6-fluoro-1-(methyl (5-(1-methyl-1H-pyrazol-4-yl)pyridin-3-yl)amino)-2,3-dihydro-1H-indene-4-carboxamide] the IC50 was < 50 nM. With `Cn1cc(-c2cncc(O[C@H]3CCc4c3ccc(F)c4C(=O)Nc3cccc(C4CC4)c3)c2)cn1` [Compound 53, (S)—N-(3-cyclopropylphenyl)-5-fluoro-1-((5-(1-methyl-1H-pyrazol-4-yl)pyridin-3-yl)oxy)-2,3-dihydro-1H-indene-4-carboxamide] the IC50 was 50 to 200 nM. Compound `Cn1cc(-c2cncc(N[C@H]3CCc4c(C(=O)Nc5cccc(C6CC6)c5)ccnc43)c2)cn1` [Compound 55, (S)—N-(3-cyclopropylphenyl)-7-((5-(1-methyl-1H-pyrazol-4-yl)pyridin-3-yl)amino)-6,7-dihydro-5H-cyclopenta[b]pyridine-4-carboxamide] has an IC50 of 200 to 500 nM. `Cn1cc(-c2cc(O[C@H]3CCc4c(C(=O)Nc5ccc(C(F)(F)F)cc5)cccc43)ccn2)cn1` [Compound 56, (S)-1-((2-(1-methyl-1H-pyrazol-4-yl)pyridin-4-yl)oxy)-N-(4-(trifluoromethyl)phenyl)-2,3-dihydro-1H-indene-4-carboxamide] was tested, and the IC50 was > 500 nM. For `Cn1cc(-c2cc(N[C@H]3CCc4c(C(=O)Nc5cccc(C6CC6)c5)cccc43)ccn2)cn1` [Compound 57, (S)—N-(3-cyclopropylphenyl)-1-((2-(1-methyl-1H-pyrazol-4-yl)pyridin-4-yl)amino)-2,3-dihydro-1H-indene-4-carboxamide], the IC50 was > 500 nM. With `Cn1cc(-c2cncc(N[C@H]3CCc4c(CNc5ccc(C(F)(F)F)cc5)cccc43)c2)cn1` [Compound 58, (S)-5-(1-methyl-1H-pyrazol-4-yl)-N-(4-(((4-(trifluoromethyl)phenyl)amino)methyl)-2,3-dihydro-1H-inden-1-yl) pyridin-3-amine] the IC50 was > 500 nM. Compound `COc1ccc(NCc2cccc3c2CC[C@@H]3Nc2cncc(-c3cnn(C)c3)c2)cc1` [Compound 59a] has an IC50 of 200 to 500 nM. In the case of `Cn1cc(-c2cncc(N[C@H]3CCc4c(CNc5cccc(C6CC6)c5)cccc43)c2)cn1` [Compound 59b], the IC50 is reported as 200 to 500 nM. With `Cn1cc(-c2cncc(N[C@H]3CCc4c(CNc5cccc(C(F)(F)F)c5)cccc43)c2)cn1` [Compound 59c] the IC50 was > 500 nM. In the case of `Cc1cccc(NCc2cccc3c2CC[C@@H]3Nc2cncc(-c3cnn(C)c3)n2)c1` [Compound 59d], the IC50 is reported as 200 to 500 nM. With `Cn1cc(-c2cncc(N[C@H]3CCc4c(CNc5ccccc5F)cccc43)n2)cn1` [Compound 59e] the IC50 was > 500 nM. In the case of `Cn1cc(-c2cncc(N[C@H]3CCc4c(CNC5CCCCC5)cccc43)n2)cn1` [Compound 59f], the IC50 is reported as > 500 nM. `Cn1cc(-c2cncc(N[C@H]3CCc4c(NC5CCCCC5)cccc43)n2)cn1` [Compound 60a] was tested, and the IC50 was > 500 nM. With `Cn1cc(-c2cncc(N[C@H]3CCc4c(NCC5CCCCC5)cccc43)n2)cn1` [Compound 60b] the IC50 was > 500 nM. For `Cn1cc(-c2cncc(N[C@H]3CCc4c(NCc5cccc(Cl)c5)cccc43)n2)cn1` [Compound 60c], the IC50 was > 500 nM. For `Cn1cc(-c2cncc(N[C@H]3CCc4c(NCc5cccc(F)c5)cccc43)n2)cn1` [Compound 60d], the IC50 was > 500 nM. `Cc1cncc(CNc2cccc3c2CC[C@@H]3Nc2cncc(-c3cnn(C)c3)n2)c1` [Compound 60e] was tested, and the IC50 was > 500 nM. In the case of `Cn1cc(-c2cncc(N[C@H]3CCc4c(NC(c5cccc(Cl)c5)C(F)(F)F)cccc43)n2)cn1` (stereo partly drawn) [Compound 61, (1S)—N^4-(1-(3-chlorophenyl)-2,2,2-trifluoroethyl)-N1-(6-(1-methyl-1H-pyrazol-4-yl)pyrazin-2-yl)-2,3-dihydro-1H-indene-1,4-diamine], the IC50 is reported as > 500 nM. In the case of `Cn1cc(-c2cncc(N[C@H]3CCc4c(C(=O)OC5CCCCC5)cccc43)n2)cn1` [Compound 62, cyclohexyl(S)-1-((6-(1-methyl-1H-pyrazol-4-yl)pyrazin-2-yl)amino)-2,3-dihydro-1H-indene-4-carboxylate], the IC50 is reported as > 500 nM. In the case of `Cn1cc(-c2cncc(N[C@H]3CCc4c(NC5(c6ccccc6)COC5)cccc43)c2)cn1` [Compound 63, (S)—N^1-(5-(1-methyl-1H-pyrazol-4-yl)pyridin-3-yl)-N^4-(3-phenyloxetan-3-yl)-2,3-dihydro-1H-indene-1,4-diamine], the IC50 is reported as > 500 nM. `Cn1cc(-c2cncc(N[C@H]3CCc4c(NC(=O)N5CCC(C)(C)C5=O)cccc43)n2)cn1` [Compound 64, (S)-3,3-dimethyl-N-(1-((6-(1-methyl-1H-pyrazol-4-yl)pyrazin-2-yl)amino)-2,3-dihydro-1H-inden-4-yl)-2-oxopyrrolidine-1-carboxamide] showed an IC50 of 200 to 500 nM. With `Cn1cc(-c2cncc(N[C@H]3CCc4c(NC(=O)NC5CCCCC5)cccc43)n2)cn1` [Compound 65a] the IC50 was < 50 nM. `Cn1cc(-c2cncc(N[C@H]3CCc4c(NC(=O)NC5CCC(F)(F)CC5)cccc43)n2)cn1` [Compound 65b] showed an IC50 of 50 to 200 nM. With `Cn1cc(-c2cncc(N[C@H]3CCc4c(NC(=O)OC5CCCCC5)cccc43)n2)cn1` [Compound 65c] the IC50 was < 50 nM. In the case of `Cn1cc(-c2cncc(N[C@H]3CCc4c(NC(=O)NCC5CC5)cccc43)n2)cn1` [Compound 65d], the IC50 is reported as > 500 nM. With `Cn1cc(-c2cncc(N[C@H]3CCc4c(NC(=O)Nc5ccccc5F)cccc43)n2)cn1` [Compound 65e] the IC50 was < 50 nM. `Cn1cc(-c2cnc(N)c(O[C@H]3CCc4c(Nc5cc(C(C)(C)C)on5)cccc43)c2)cn1` [Compound 67, (S)—N-(1-((2-amino-5-(1-methyl-1H-pyrazol-4-yl)pyridin-3-yl)oxy)-2,3-dihydro-1H-inden-4-yl)-5-(tert-butyl) isoxazol-3-amine] was tested, and the IC50 was < 50 nM. Work on `Cn1cc(-c2cnc(N)c(O[C@H]3CCc4c(Nc5cc(C(C)(C)C)on5)cccc43)c2)cn1` [Compound 68, (S)—N-(1-((2-amino-5-(1-methyl-1H-pyrazol-4-yl)pyridin-3-yl)oxy)-2,3-dihydro-1H-inden-4-yl)-5-(tert-butyl) isoxazol-3-amine] yielded an IC50 of 200 to 500 nM. In the case of `COc1cc(C(=O)Nc2cccc3c2C(=O)CC3Nc2cncc(-c3cnn(C)c3)c2)ccc1F` (stereo not drawn) [Compound 69, 4-fluoro-3-methoxy-N-(1-((5-(1-methyl-1H-pyrazol-4-yl)pyridin-3-yl)amino)-3-oxo-2,3-dihydro-1H-inden-4-yl)benzamide], the IC50 is reported as > 500 nM. With `Cn1cc(-c2cncc(NC3CC(=O)c4c(NC(=O)c5ccc(C(F)(F)F)cc5)cccc43)c2)cn1` (stereo not drawn) [Compound 70, N-(1-((5-(1-methyl-1H-pyrazol-4-yl)pyridin-3-yl)amino)-3-oxo-2,3-dihydro-1H-inden-4-yl)-4-(trifluoromethyl)benzamide] the IC50 was > 500 nM.
